# Values of other authors, collected in patent publication US20200179295A1, “MRI-DETECTABLE MULTILAYER MICROCAPSULES FOR ULTRASOUND-TRIGGERED DELIVERY OF PHARMACOLOGICALLY ACTIVE AGENTS” (THE UAB RESEARCH FOUNDATION, priority 2018, published 2020).
# Details: 1.5 T; Rohrer et al. 2005
smiles,measurement,value
"CC(O)CN1CCN(CC(=O)[O-])CCN(CC(=O)[O-])CCN(CC(=O)[O-])CC1.[Gd+3] (stereo not shown) [ProHance, gadoteridol]",r1,4.1 mM⁻¹ s⁻¹
